Laboratory results: paper PMC13125297, “Portable geosmin detection system based on sensor cells expressing insect odorant receptors” (Scientific Reports, 2026)

What was measured:
Or13a = target: T1, Or13a (Drosophila melanogaster, UniProt Q9VXL0); assay: GCaMP6s calcium imaging in Sf21 cells co-expressing Or13a and Orco, dose-response; assay type: cell-based
T1 construct: wild-type Or13a stably expressed in Sf21 cells (clone Or13a-WT-C4); with Orco
T1 sequence (Q9VXL0 1-418): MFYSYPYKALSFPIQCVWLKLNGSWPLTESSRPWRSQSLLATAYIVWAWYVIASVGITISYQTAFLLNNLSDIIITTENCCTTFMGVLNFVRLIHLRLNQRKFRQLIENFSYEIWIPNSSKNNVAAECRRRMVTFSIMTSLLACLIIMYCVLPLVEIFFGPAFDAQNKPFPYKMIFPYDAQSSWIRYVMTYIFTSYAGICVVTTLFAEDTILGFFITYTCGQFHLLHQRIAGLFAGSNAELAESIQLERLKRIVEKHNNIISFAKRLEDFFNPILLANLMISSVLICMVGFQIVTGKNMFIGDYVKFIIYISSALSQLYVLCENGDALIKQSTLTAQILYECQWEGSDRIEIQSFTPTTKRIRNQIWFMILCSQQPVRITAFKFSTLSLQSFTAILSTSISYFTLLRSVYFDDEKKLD
T1 sequence (Q9VNB5 1-486 partner): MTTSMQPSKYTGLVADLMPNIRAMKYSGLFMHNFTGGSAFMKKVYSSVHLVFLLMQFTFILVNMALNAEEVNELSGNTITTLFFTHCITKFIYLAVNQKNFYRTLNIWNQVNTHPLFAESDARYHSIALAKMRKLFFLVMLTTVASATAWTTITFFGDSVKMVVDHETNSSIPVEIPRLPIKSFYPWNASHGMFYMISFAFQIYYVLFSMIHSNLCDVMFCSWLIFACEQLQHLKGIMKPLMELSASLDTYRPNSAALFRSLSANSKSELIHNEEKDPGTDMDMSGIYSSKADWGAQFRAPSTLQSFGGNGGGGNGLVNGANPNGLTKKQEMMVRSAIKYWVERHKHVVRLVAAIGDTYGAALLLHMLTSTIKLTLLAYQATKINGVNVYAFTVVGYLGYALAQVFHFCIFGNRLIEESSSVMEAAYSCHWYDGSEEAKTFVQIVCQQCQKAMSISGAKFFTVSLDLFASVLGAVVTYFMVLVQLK

Or56a = target: T2, Or56a (Drosophila melanogaster, UniProt Q9V8Y7); assay: GCaMP6s calcium imaging in Sf21 cells co-expressing Or56a and Orco, dose-response; assay type: cell-based
T2 construct: with Orco
T2 sequence (Q9V8Y7 whole entry, one chain of several): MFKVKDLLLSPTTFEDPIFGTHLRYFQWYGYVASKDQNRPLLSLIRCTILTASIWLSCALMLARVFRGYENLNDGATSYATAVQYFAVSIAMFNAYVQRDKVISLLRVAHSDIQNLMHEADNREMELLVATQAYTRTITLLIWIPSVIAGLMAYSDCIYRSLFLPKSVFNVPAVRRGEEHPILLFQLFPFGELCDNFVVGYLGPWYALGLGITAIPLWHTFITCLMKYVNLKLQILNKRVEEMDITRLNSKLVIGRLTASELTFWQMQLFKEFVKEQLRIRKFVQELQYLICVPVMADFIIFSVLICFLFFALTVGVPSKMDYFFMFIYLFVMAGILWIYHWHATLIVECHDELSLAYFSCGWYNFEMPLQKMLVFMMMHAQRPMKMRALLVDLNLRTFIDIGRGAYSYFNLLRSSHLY

| EC50 (Or13a) | EC50 (Or56a) | Compound |
| --- | --- | --- |
| 3500 nM | – | C=CC(O)CCCCC (centres unmarked) [1-octen-3-ol] |
| – | 630 nM | CC1CCCC2(C)CCCCC12O (stereo not drawn) [geosmin, trans-1,10-dimethyl-trans-9-decalol] |
